Measured values as given in ChEMBL document CHEMBL1201862, “PubChem BioAssay data set” (2004).
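Following 48 hours of exposure in 96-well plates, responses at five concentrations were used to interpolate endpoints linearly. Here, GI50 denotes the concentration required for 50% inhibition of growth.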 The source made the active and inactive calls. Rule as the data show it: active = GI50 up to about 1.1 µM and inactive = higher.

How the values were obtained:
Test in all cases: growth of human tumour cells (NCI), 48 h
[1] = tested on: 786-0
[2] = tested on: A549
[3] = tested on: EKVX
[4] = tested on: HCT-15
[5] = tested on: HOP-62
[6] = tested on: K562
[7] = tested on: MOLT-4
[8] = tested on: NCI-H522
[9] = tested on: OVCAR-4
[10] = tested on: RPMI-8226
[11] = tested on: SF-539
[12] = tested on: SK-MEL-28
[13] = tested on: SK-MEL-2
[14] = tested on: SK-OV-3
[15] = tested on: SW-620
[16] = tested on: UACC-62
[17] = tested on: MCF7
[18] = tested on: NCI/ADR-RES
[19] = tested on: PC-3

## BrC1=CC=C2NCCCCCC/N=C3\C=CC(Br)=CC=C3NCCCCCC/N=C\2C=C1
[1]
  GI50: > 25.5 µM (inactive)
[2]
  GI50: > 25.5 µM (inactive)
[3]
  GI50: > 25.5 µM (inactive)
[4]
  GI50: > 25.5 µM
[5]
  GI50: > 25.5 µM (inactive)
[6]
  GI50: > 25.5 µM (inactive)
[7]
  GI50: > 25.5 µM (inactive)
[8]
  GI50: > 25.5 µM (inactive)
[9]
  GI50: > 25.5 µM (inactive)
[10]
  GI50: > 25.5 µM (inactive)
[11]
  GI50: > 25.5 µM (inactive)
[12]
  GI50: > 25.5 µM (inactive)
[13]
  GI50: > 25.5 µM (inactive)
[14]
  GI50: > 25.5 µM (inactive)
[15]
  GI50: > 25.5 µM (inactive)
[16]
  GI50: > 25.5 µM (inactive)

## CC1=C(O)C(=O)C2C(=O)C1C(C)C2c1ccccc1 (configuration not stated)
[1]
  GI50: > 100 µM (inactive)
[2]
  GI50: > 100 µM (inactive)
[3]
  GI50: > 100 µM (inactive)
[4]
  GI50: > 100 µM
[5]
  GI50: > 100 µM (inactive)
[6]
  GI50: > 100 µM (inactive)
[7]
  GI50: > 100 µM (inactive)
[8]
  GI50: > 100 µM (inactive)
[9]
  GI50: > 100 µM (inactive)
[10]
  GI50: > 100 µM (inactive)
[11]
  GI50: > 100 µM (inactive)
[12]
  GI50: > 100 µM (inactive)
[13]
  GI50: > 100 µM (inactive)
[14]
  GI50: > 100 µM (inactive)
[15]
  GI50: > 100 µM (inactive)
[16]
  GI50: > 100 µM (inactive)

## COc1cc(COC(=O)N2CC=CC2C(=O)O)c([N+](=O)[O-])cc1OC (configuration not stated)
[1]
  GI50: > 100 µM (inactive)
[2]
  GI50: > 100 µM (inactive)
[3]
  GI50: > 100 µM (inactive)
[4]
  GI50: > 100 µM
[5]
  GI50: > 100 µM (inactive)
[6]
  GI50: > 100 µM (inactive)
[17]
  GI50: > 100 µM (inactive)
[7]
  GI50: > 100 µM (inactive)
[18]
  GI50: > 100 µM (inactive)
[19]
  GI50: > 100 µM (inactive)
[10]
  GI50: > 100 µM (inactive)
[11]
  GI50: > 100 µM (inactive)
[12]
  GI50: > 100 µM (inactive)
[14]
  GI50: > 100 µM (inactive)
[15]
  GI50: > 100 µM (inactive)
[16]
  GI50: > 100 µM (inactive)

## C[C@]12CCc3nonc3C1CC[C@@H]1C2CC[C@]2(C)C(=O)/C(=N\O)CC12 (some centres not stated)
[1]
  GI50: > 100 µM (inactive)
[2]
  GI50: > 100 µM (inactive)
[3]
  GI50: > 100 µM (inactive)
[4]
  GI50: > 100 µM
[5]
  GI50: > 100 µM (inactive)
[6]
  GI50: > 100 µM (inactive)
[7]
  GI50: > 100 µM (inactive)
[8]
  GI50: 4.66 µM (inactive)
[9]
  GI50: 48.2 µM (inactive)
[10]
  GI50: > 100 µM (inactive)
[11]
  GI50: > 100 µM (inactive)
[12]
  GI50: > 100 µM (inactive)
[13]
  GI50: > 100 µM (inactive)
[14]
  GI50: > 100 µM (inactive)
[15]
  GI50: > 100 µM (inactive)
[16]
  GI50: > 100 µM (inactive)

## O=C(O)C1CCc2nnc(-c3ccccc3)n21 (configuration not stated)
[1]
  GI50: > 100 µM (inactive)
[2]
  GI50: > 100 µM (inactive)
[3]
  GI50: > 100 µM (inactive)
[4]
  GI50: > 100 µM
[5]
  GI50: > 100 µM (inactive)
[6]
  GI50: > 100 µM (inactive)
[7]
  GI50: > 100 µM (inactive)
[8]
  GI50: > 100 µM (inactive)
[9]
  GI50: > 100 µM (inactive)
[10]
  GI50: > 100 µM (inactive)
[11]
  GI50: > 100 µM (inactive)
[12]
  GI50: > 100 µM (inactive)
[13]
  GI50: > 100 µM (inactive)
[14]
  GI50: > 100 µM (inactive)
[15]
  GI50: > 100 µM (inactive)
[16]
  GI50: > 100 µM (inactive)

## COC(=O)c1[nH]c(=S)[nH]c(=O)c1-c1ccc(Cl)cc1
[1]
  GI50: > 50 µM (inactive)
[2]
  GI50: > 50 µM (inactive)
[3]
  GI50: > 50 µM (inactive)
[4]
  GI50: > 50 µM
[5]
  GI50: > 50 µM (inactive)
[6]
  GI50: > 50 µM (inactive)
[7]
  GI50: > 50 µM (inactive)
[8]
  GI50: > 50 µM (inactive)
[9]
  GI50: > 50 µM (inactive)
[10]
  GI50: > 50 µM (inactive)
[11]
  GI50: > 50 µM (inactive)
[12]
  GI50: > 50 µM (inactive)
[13]
  GI50: > 50 µM (inactive)
[14]
  GI50: > 50 µM (inactive)
[15]
  GI50: > 50 µM (inactive)
[16]
  GI50: > 50 µM (inactive)

## COc1ccccc1-n1c(NN)nc2ccc(Br)cc2c1=O
[1]
  GI50: 36.9 µM (inactive)
[2]
  GI50: 45.4 µM (inactive)
[3]
  GI50: 27.9 µM (inactive)
[4]
  GI50: 35.6 µM
[5]
  GI50: 28.8 µM (inactive)
[6]
  GI50: 35.6 µM (inactive)
[7]
  GI50: 26.2 µM (inactive)
[8]
  GI50: 16.9 µM (inactive)
[9]
  GI50: > 100 µM (inactive)
[10]
  GI50: 41.2 µM (inactive)
[11]
  GI50: 27.9 µM (inactive)
[12]
  GI50: 40.3 µM (inactive)
[13]
  GI50: 44.4 µM (inactive)
[14]
  GI50: 26.5 µM (inactive)
[15]
  GI50: 53 µM (inactive)
[16]
  GI50: 36.6 µM (inactive)
